Laboratory results from patent US6846843B2, “β-thioamino acids” (Gruenenthal GmbH, priority 2000, dated 2005).
Structures can show the parent of a compound that is named as a salt. Where two headings read alike, the source gives them in different places.

Tests used:
[1] = system: formalin-induced nociception; test: Formalin test on mice (second phase); format: in vivo; conditions: read-out: Mouse Formalin Test ED50
Description: The investigations to determine the antinociceptive action of the compounds according to the invention were carried out by the formalin test on male albino mice (NMRI, 25-35 g, Iffa Credo, Belgium).
In the formalin test the first (early) phase (0-15 minutes after the formalin injection) and the second (late) phase (15-60 minutes after the formalin injection) differ (D. Dubuisson et al., Pain, Vol. 4, pp. 161-174 (1977)). The early phase, being a direct reaction to the formalin injection, constitutes a model for acute pain, whereas the late phase is regarded as a model for persistent (chronic or inflammatory) pain (T. J. Coderre et al., Pain, Vol. 52, pp. 259-285 (1993)).
The compounds according to the invention were investigated in the second phase of the formalin test in order to obtain information on the effects of substances in chronic/inflammatory pain.
By means of a single subcutaneous formalin injection (20 μl, 1% aqueous solution) into the dorsal side of the right-hand rear paw, a nociceptive reaction was induced in unconstrained experimental animals, manifested in a noticeable licking and biting of the affected paw. The nociceptive behavior during the investigation period in the second (late) phase of the formalin test was continuously monitored by observing the animals. The pain reaction was quantified by totalling the time in seconds during which the animals continued to lick and bite the affected paw during the investigation period. After injecting substances that have an antinociceptive effect in the formalin test, the aforedescribed behavior pattern of the animals is reduced or possibly even eliminated. Corresponding to the substance tests, in which the animals had been injected with the test substance before formalin, the control animals were injected with a vehicle, i.e. solvent (e.g. 0.9% NaCl solution) before the formalin injection. The behavior of the animals after administration of the substance (n=10 per substance dose) was compared with a control group (n=10).
Based on the quantification of the pain reaction, the effect of the substance in the formalin test was determined as the change in the control in percentage terms. The ED50 calculations were carried out by means of regression analysis. The application time before the formalin injection (intraperitoneally: 15 minutes, intravenously: 5 minutes) was chosen depending on the type of application of the compounds according to the invention.

gabapentin binding site = test: Gabapentin binding assay (displacement of gabapentin from its binding site); conditions: displacement of gabapentin, read-out: Affinity (IC50)
Description: Gabapentin is used in the binding assay in order to determine the binding and affinities of the selected compounds. The affinity of the compounds according to the invention is measured via the displacement of gabapentin from its binding site.

[2] = system: phenylquinone-induced writhing reactions; test: Phenylquinone-induced writhing test in mice; format: in vivo; conditions: iv, read-out: Writhing Mouse i.v. ED50
Description: The antinociceptive effectiveness of the compounds according to the invention was investigated in mice using the phenylquinone-induced writhing test as modified by I. C. Hendershot and J. Forsaith, J. Pharmacol. Exp. Ther. 125, 237-240 (1959)). Male NMRI mice weighing 25-30 g were used for this purpose. Groups of 10 animals per substance dose were given intraperitoneally 10 minutes after intravenous administration of a compound according to the invention, 0.3 ml/mouse of a 0.02% aqueous solution of phenylquinone (phenylbenzoquinone, from Sigma, Deisenhofen; solution prepared by addition of 5% of ethanol and storage in a water bath at 45° C.). The animals were placed individually in observation cages. The number of pain-induced stretching movements (so-called writhing reactions=contortion of the body accompanied by stretching of the rear extremities) 5-20 minutes after administration of the phenylquinone were counted using a push-button counter. Animals that had received physiological saline solution i.v. and phenylquinone […]. served as controls.
All substances were tested in the standard dose of 10 mg/kg.

cold-induced allodynia = test: Bennett model, neuropathic pain in rats (cold-induced allodynia); format: in vivo; conditions: rat; for AUD: over 1 hour, *** p≦0.001
Description: The effectiveness in neuropathic pain was investigated using the Bennett model (Chronic Constriction Injury: Bennett and Xie, 1988, Pain 33: 87-107).
The right sciatic nerve of Sprague-Dawley rats weighing 140-160 g anaesthetised with nembutal was loosely ligatured in four places. The animals develop an hypersensitivity in the paw inervated by the damaged nerve, which after a one-week healing phase is quantified over about four weeks by means of a 4° C. cold metal plate (cold-induced allodynia). The animals are observed for a period of 2 minutes on this plate and the number of contractive reactions of the damaged paw is measured. The effect of the substance is determined at four times over a period of 1 hour (15, 30, 45 and 60 minutes after application) with reference to the baseline value before application of the substance and the resulting area under the curve (AUD) as well as the inhibition of the cold-induced allodynia at the individual measuring points is expressed as a percentage inhibition with respect to the vehicle control (AUD) and to the starting value (individual measurement points). The group size is n=10, and the significance of an anti-allodynic action is determined on the basis of the AUD values over a paired Test (* 0.05≧p>0.01; ** 0.01≧p>0.001; *** p≦0.001; Armitage and Berry, 1987, Stat. Methods in Medical Research, London: Blackwell Scientific Publications).

[3] = system: mechanical hyperalgesia after paw incision; test: Mechanical hyperalgesia after paw incision in rats (paw incision model); format: in vivo; conditions: rat, 464 mg/kg i.p.
Description: In this model the wound pain in the tissue surrounding an incision in the plantar side of a rear rat paw is investigated as a model of post-operative pain (Brennan, T. J., Vandermeulen, E. P., Gebhart, G. F., Pain (1996) 493-501). For this purpose the retraction latency after punctiform mechanical stimulation with an electronic von Frey filament is determined. After the paw incision a mechanical hyperalgesia develops, which remains stable over several days.
Male Sprague Dawley rats (bodyweight 200-300 g) are used. Under halothane anaesthesia a 1 cm-long incision is made starting 0.5 cm from the proximal end of the heel, through the skin, fascia and plantaris muscle, and closed with two stitches.
The retraction threshold of the paw expressed in grams after punctiform mechanical stimulation is determined using an electronic von Frey filament (Digital Transducer Indicator Model 1601C, IITC Inc.). For this purpose the retraction threshold per measurement point is measured five times at intervals of 30 seconds and the individual median value is determined, on the basis of which the mean value of the animal cohort is in turn calculated. […]
In order to investigate primary hyperalgesia, the retraction threshold is determined on the ipsilateral paw in the immediate vicinity of the incision as well as in the same position on the contralateral paw. […]

[4] = mouse, i.v., 10 minutes before phenylquinone

`CCCCCCCC(C)(S)C(N)C(=O)O.Cl` (racemic) [Compound 10, rac-threo-2-amino-3-mercapto-3-methyldecanoic acid hydrochloride] showed an ED50 ([1]; ip, mouse, i.p., second phase) of 105 mg/kg and an IC50 (gabapentin binding site; hydrochloride) of 150 nM.
For `CCCCCC(C)(S)C(N)C(=O)O.Cl` (racemic) [Compound 4, rac-2-amino-3-mercapto-3-methyloctanoic acid hydrochloride], the ED50 ([1]; iv, mouse, i.v., second phase) was 67 mg/kg, the IC50 (gabapentin binding site; hydrochloride) was 186 nM and the ED50 [2, 4] was 12 mg/kg. The “Change Compared to Control (%)” value (cold-induced allodynia; 46.4 mg/kg i.p.) was 32.5%, the AUD (cold-induced allodynia; 46.4 mg/kg i.p.) was 1893.1 ± 284.6*** and the “Change Compared to Control (%)” value (cold-induced allodynia; 100 mg/kg i.p.) was 66.9%. The AUD (cold-induced allodynia; 100 mg/kg i.p.) was 3603.1 ± 228.1***.
Compound `CCCCCCCC(C)(S)C(N)C(=O)O.Cl` (racemic) [Compound 6, rac-2-amino-3-mercapto-3-methyldecanoic acid hydrochloride] has an ED50 ([1]; iv, mouse, i.v., second phase) of 66 mg/kg, an IC50 (gabapentin binding site; hydrochloride) of 199 nM and an ED50 [2, 4] of 35 mg/kg. For the same compound, the “% MPE (Maximal Possible Effect)” value [3] was 27% MPE (464 mg/kg) i.p.
In the case of `NCC1(CC(=O)O)CCCCC1` [Gabapentin, gabapentin, reference compound], the ED50 ([1]; Mus musculus) is reported as 79 mg/kg, the ED50 ([2]; Mus musculus) is reported as 38 mg/kg and the “Change Compared to Control (%)” value (cold-induced allodynia; 100 mg/kg i.p.) is reported as 34.5%. The AUD (cold-induced allodynia; 100 mg/kg i.p.) was 1940.3 ± 139.7***, the “Change Compared to Control (%)” value (cold-induced allodynia; 464 mg/kg i.p.) was 47.3% and the AUD (cold-induced allodynia; 464 mg/kg i.p.) was 2577.8 ± 147.4***.
`CCCCCCC(C)(S)C(N)C(=O)O.Cl` (racemic) [Compound 5, rac-2-amino-3-mercapto-3-methylnonanoic acid hydrochloride] showed an ED50 ([1]; ip, mouse, i.p., second phase) of 54 mg/kg and an IC50 (gabapentin binding site; hydrochloride) of 70 nM.
In the case of `CCCCCCC(C)(S)C(N)C(=O)O` (racemic) [Compound 12, rac-threo-2-amino-3-mercapto-3-methylnonanoic acid hydrochloride], the ED50 ([1]; ip, mouse, i.p., second phase) is reported as 78 mg/kg and the IC50 (gabapentin binding site; hydrochloride) is reported as 70 nM.
With `CCCC(C)(S)C(N)C(=O)O.Cl` (racemic) [Compound 2, rac-2-amino-3-mercapto-3-methylhexanoic acid hydrochloride] the ED50 ([1]; iv, mouse, i.v., second phase) was 158 mg/kg and the IC50 (gabapentin binding site) was 165 nM.
For `Cl.NC(C(=O)O)C1(S)CCCC1` (racemic) [Compound 8, rac-amino-(1-mercaptocyclopentyl)acetic acid hydrochloride], the ED50 ([1]; iv, mouse, i.v., second phase) was 79 mg/kg, the IC50 (gabapentin binding site) was 151 nM and the ED50 [2, 4] was 70 mg/kg.
